From patent US8802597B2, “Herbicidal pyrimidines” (E I du Pont de Nemours and Company, priority 2003, dated 2014)

What was measured:
Type in all cases: in vivo
[1] = system: giant foxtail (Setaria faberii); experiment: Test C pre/postemergence; details: for Foxtail, Giant plant response rating: scale 0 to 100 (0 no effect, 100 complete control)
Excerpt: (§1) Seeds or nutlets of plant species selected from bermudagrass (Cynodon dactylon), Surinam grass (Brachiaria decumbens), cocklebur (Xanthium strumarium), corn (Zea mays), crabgrass (Digitaria sanguinalis), woolly cupgrass (Eriochloa villosa), giant foxtail (Setaria faberii), goosegrass (Eleusine indica), johnsongrass (Sorghum halepense), kochia (Kochia scoparia), lambsquarters (Chenopodium album), morningglory (Ipomoea coccinea), eastern black nightshade (Solanum ptycanthum), yellow nutsedge (Cyperus esculentus), pigweed (Amaranthus retroflexus), common ragweed (Ambrosia elatior), soybean (Glycine max), common (oilseed) sunflower (Helianthus annuus), and velvetleaf (Abutilon theophrasti) were planted and treated preemergence with test chemicals formulated in a non-phytotoxic solvent mixture which included a surfactant.
(§2) At the same time, plants selected from these crop and weed species and also winter barley (Hordeum vulgare), blackgrass (Alopecurus myosuroides), canarygrass (Phalaris minor), chickweed (Stellaria media), downy brome (Bromus tectorum), green foxtail (Setaria viridis), Italian ryegrass (Lolium multiflorum), wheat (Triticum aestivum), wild oat (Avena fatua) and windgrass (Apera spica-venti) were treated with postemergence applications of some of the test chemicals formulated in the same manner. Plants ranged in height from 2 to 18 cm (1- to 4-leaf stage) for postemergence treatments. Plant species in the flooded paddy test consisted of rice (Oryza sativa), umbrella sedge (Cyperus difformis), duck salad (Heteranthera limosa) and barnyardgrass (Echinochloa crus-galli) grown to the 2-leaf stage for testing. Treated plants and controls were maintained in a greenhouse for 12 to 14 days, after which time all species were compared to controls and visually evaluated. Plant response ratings, summarized in Table C, are based on a scale of 0 to 100 where 0 is no effect and 100 is complete control. A dash (-) response means no test result.

[2] = system: lambsquarters (Chenopodium album); experiment: Test C pre/postemergence; details: for Lambsquarters plant response rating: scale 0 to 100 (0 no effect, 100 complete control)
Excerpt: as §1, §2

[3] = system: velvetleaf (Abutilon theophrasti); experiment: Test C pre/postemergence; details: for Velvetleaf plant response rating: scale 0 to 100 (0 no effect, 100 complete control)
Excerpt: as §1, §2

[4] = system: goosegrass (Eleusine indica); experiment: Test C pre/postemergence; details: for Goosegrass plant response rating: scale 0 to 100 (0 no effect, 100 complete control)
Excerpt: as §1, §2

[5] = system: chickweed (Stellaria media); experiment: Test C postemergence; details: for Chickweed plant response rating: scale 0 to 100 (0 no effect, 100 complete control); for Plant response rating, Chickweed: scale 0 to 100
Excerpt: as §1, §2

[6] = Postemergence, 250 g ai/ha, scale 0 to 100
[7] = Postemergence, 500 g ai/ha, scale 0 to 100
[8] = Preemergence, 62 g ai/ha, scale 0 to 100, 0 no effect, 100 complete control
[9] = Preemergence, 125 g ai/ha, scale 0 to 100
[10] = Preemergence, 250 g ai/ha, scale 0 to 100
[11] = Preemergence, 500 g ai/ha, scale 0 to 100
[12] = Preemergence, 31 g ai/ha, scale 0 to 100, 0 no effect, 100 complete control

## CNN=Cc1nc(C2CC2)nc(N)c1Br [Compound 49]
[1]; Postemergence, 62 g ai/ha
  Foxtail, Giant plant response rating: 0
[1]; Postemergence, 125 g ai/ha
  Foxtail, Giant plant response rating: 0
[1]; [6]
  Plant response rating, Foxtail, Giant: 0
[1]; [7]
  Plant response rating, Foxtail, Giant: 0
[1]; [8]
  Plant response rating, Foxtail, Giant: 0
[1]; [9]
  Plant response rating, Foxtail, Giant: 0
[1]; [10]
  Plant response rating, Foxtail, Giant: 0
[1]; [11]
  Plant response rating, Foxtail, Giant: 65
[2]; Postemergence, 62 g ai/ha
  Lambsquarters plant response rating: 70
[2]; Postemergence, 125 g ai/ha
  Lambsquarters plant response rating: 90
[2]; [6]
  Plant response rating, Lambsquarters: 95
[2]; [7]
  Plant response rating, Lambsquarters: 95
[2]; [8]
  Plant response rating, Lambsquarters: 100
[2]; [9]
  Plant response rating, Lambsquarters: 100
[2]; [10]
  Plant response rating, Lambsquarters: 100
[2]; [11]
  Plant response rating, Lambsquarters: 100
[3]; Postemergence, 62 g ai/ha
  Velvetleaf plant response rating: 45
[3]; Postemergence, 125 g ai/ha
  Velvetleaf plant response rating: 70
[3]; [6]
  Plant response rating, Velvetleaf: 75
[3]; [7]
  Plant response rating, Velvetleaf: 80
[3]; [8]
  Plant response rating, Velvetleaf: 15
[3]; [9]
  Plant response rating, Velvetleaf: 70
[3]; [10]
  Plant response rating, Velvetleaf: 90
[3]; [11]
  Plant response rating, Velvetleaf: 100
[4]; Postemergence, 62 g ai/ha
  Goosegrass plant response rating: 0
[4]; Postemergence, 125 g ai/ha
  Goosegrass plant response rating: 0
[4]; [6]
  Plant response rating, Goosegrass: 20
[4]; [7]
  Plant response rating, Goosegrass: 25
[4]; [8]
  Plant response rating, Goosegrass: 0
[4]; [9]
  Plant response rating, Goosegrass: 0
[4]; [10]
  Plant response rating, Goosegrass: 0
[4]; [11]
  Plant response rating, Goosegrass: 15
[5]; 62 g ai/ha
  Chickweed plant response rating: 0
[5]; 125 g ai/ha
  Chickweed plant response rating: 0
[5]; 250 g ai/ha
  Plant response rating, Chickweed: 40
[5]; 500 g ai/ha
  Plant response rating, Chickweed: 45

## CCCCOC(=O)c1nc(C2CC2)nc(N)c1Br [Compound 16]
[1]; Postemergence, 31 g ai/ha
  Plant response rating (scale of 0 to 100), Foxtail, Giant: 0
[1]; Postemergence, 62 g ai/ha
  Foxtail, Giant plant response rating: 20
[1]; Postemergence, 125 g ai/ha
  Foxtail, Giant plant response rating: 55
[1]; [6]
  Plant response rating, Foxtail, Giant: 65
[1]; [12]
  Plant response rating, Foxtail, Giant: 0
[1]; [8]
  Plant response rating, Foxtail, Giant: 0
[1]; [9]
  Plant response rating, Foxtail, Giant: 0
[1]; [10]
  Plant response rating, Foxtail, Giant: 75
[2]; Postemergence, 31 g ai/ha
  Plant response rating (scale of 0 to 100), Lambsquarters: 95
[2]; Postemergence, 62 g ai/ha
  Lambsquarters plant response rating: 100
[2]; Postemergence, 125 g ai/ha
  Lambsquarters plant response rating: 100
[2]; [6]
  Plant response rating, Lambsquarters: 100
[2]; [12]
  Plant response rating, Lambsquarters: 95
[2]; [8]
  Plant response rating, Lambsquarters: 95
[2]; [9]
  Plant response rating, Lambsquarters: 100
[2]; [10]
  Plant response rating, Lambsquarters: 100
[3]; Postemergence, 31 g ai/ha
  Plant response rating (scale of 0 to 100), Velvetleaf: 55
[3]; Postemergence, 62 g ai/ha
  Velvetleaf plant response rating: 60
[3]; Postemergence, 125 g ai/ha
  Velvetleaf plant response rating: 65
[3]; [6]
  Plant response rating, Velvetleaf: 90
[3]; [12]
  Plant response rating, Velvetleaf: 25
[3]; [8]
  Plant response rating, Velvetleaf: 90
[3]; [9]
  Plant response rating, Velvetleaf: 95
[3]; [10]
  Plant response rating, Velvetleaf: 100
[4]; Postemergence, 31 g ai/ha
  Plant response rating (scale of 0 to 100), Goosegrass: 0
[4]; Postemergence, 62 g ai/ha
  Goosegrass plant response rating: 0
[4]; Postemergence, 125 g ai/ha
  Goosegrass plant response rating: 0
[4]; [6]
  Plant response rating, Goosegrass: 20
[4]; [12]
  Plant response rating, Goosegrass: 0
[4]; [8]
  Plant response rating, Goosegrass: 0
[4]; [9]
  Plant response rating, Goosegrass: 0
[4]; [10]
  Plant response rating, Goosegrass: 0
[5]; 31 g ai/ha
  Plant response rating (scale of 0 to 100), Chickweed: 0
[5]; 62 g ai/ha
  Chickweed plant response rating: 0
[5]; 125 g ai/ha
  Plant response rating, Chickweed: 20
[5]; 250 g ai/ha
  Plant response rating, Chickweed: 35
